From patent US20160303116A1, “TREATMENT OF MULTIPLE SCLEROSIS WITH A 1,2,4-TRIAZOLO [1,5A] PYRIDINE DERIVATIVE” (CEPHALON, INC., priority 2013, published 2016)

Assays:
MOG-induced EAE [1] = assay: MOG-induced EAE mouse model of MS, clinical signs; assay type: in vivo, C57Bl/6 mice; details: for Percent Inhibition-1: inhibition according to incidence vs vehicle; for Onset (of disease): no EAE counted as 31 days; for Percent Inhibition-3: reduction of GMS vs vehicle; for Percent Inhibition-2: reduction of MMS vs vehicle; for Incidence: sick/total
MOG-induced EAE [2] = assay: Histological scoring of spinal cords from MOG-induced EAE mice (inflammation, demyelination); assay type: in vivo, C57Bl/6 mice; details: 30 and 55 mg/kg twice a day and 110 mg/kg once a day; range over groups
Excerpt: At the end of the observation period (day 30) the mice of the treatment groups were necropsied. The mice were deeply anesthetized with isoflourane and air and transcardially perfused, initially with a flushing solution (saline with heparin) until the perfusate was bloodless and then flushed with 4% buffered formalin. The vertebral columns (from the cervical region to the lumbar region) of each of the mice were dissected. The vertebral column was isolated by cutting away as much muscle as possible and sectioned distally at the last rib. The brain and the vertebral column were preserved in 4% buffered formalin.
Two transverse sections from each cervical and lumbar intumescence (cervico-thoracic and lumbo-sacral vertebral segments) were evaluated. […] Histological sections were scored blind. Inflammation was evaluated for both gray and white matter, demyelination was evaluated within white matter only, and axonal injury was evaluated within the white matter. […] The percentage axonal loss was determined by subtracting the number of points crossing axons subtracted by the total number of points of the stereological grid, divided by the total number of points of the stereological grid.
Two transverse sections from each cervical and lumbar intumescence (cervico-thoracic and lumbo-sacral vertebral segments) were evaluated. […]

SCH-induced EAE = SCH-induced EAE mouse model (acute), clinical signs; assay type: in vivo, (Balb/c×SJL) F1 (CSFL) mice; details: for GMS reduction / MMS reduction: vs vehicle
PLP-induced EAE [3] = assay: PLP-induced EAE mouse model (relapsing-remitting), clinical signs; assay type: in vivo, SJL/J mice; details: for Mortality: dead/total, to day 60; for Incidence: sick/total
PLP-induced EAE [4] = assay: Ex vivo blinded pathology scoring in PLP-induced EAE; parameters: species or system SJL/J mice; details: 100 mg/kg dose; p<0.05; data not shown
Description: Two transverse sections from each cervical and lumbar intumescence (cervico-thoracic and lumbo-sacral vertebral segments) were evaluated. Histological evaluation was performed on 4 μm thick sections stained with hematoxylin-eosin (H&E), Luxol fast blue periodic acid-Schiff (LFB/PAS) and Bielschowsky silver impregnation to assess inflammation, demyelination and axonal pathology. Histological sections were scored blind. Inflammation was evaluated for both gray and white matter, demyelination was evaluated within white matter only, and axonal injury was evaluated within the white matter. Scores from both cervico-thoracic, and lumbosacral sections, respectively, were averaged to obtain the average inflammation score and demyelination scores. The most severe area of demyelination for each section was used to evaluate axonal pathology. […] The percentage axonal loss was determined by subtracting the number of points crossing axons subtracted by the total number of points of the stereological grid, divided by the total number of points of the stereological grid.

in vivo = assay: in vivo; parameters: species or system male beagle dogs; details: dog, po
[5] = parameters: species or system mice; details: mouse, in vivo
Description: PTX was injected intraperitoneally on the day of induction and 48 hours later at 100 ng/0.2 ml/mouse. […] All animals were monitored daily for clinical signs from the tenth day post-EAE induction until day 30. Scoring of EAE clinical signs was recorded on observations cards according to the grading system described herein.

JAK2 = JAK2 (Homo sapiens, UniProt O60674); details: statement with reference to earlier filings; cited from earlier work
Chain of JAK2 (O60674 whole entry, species assumed): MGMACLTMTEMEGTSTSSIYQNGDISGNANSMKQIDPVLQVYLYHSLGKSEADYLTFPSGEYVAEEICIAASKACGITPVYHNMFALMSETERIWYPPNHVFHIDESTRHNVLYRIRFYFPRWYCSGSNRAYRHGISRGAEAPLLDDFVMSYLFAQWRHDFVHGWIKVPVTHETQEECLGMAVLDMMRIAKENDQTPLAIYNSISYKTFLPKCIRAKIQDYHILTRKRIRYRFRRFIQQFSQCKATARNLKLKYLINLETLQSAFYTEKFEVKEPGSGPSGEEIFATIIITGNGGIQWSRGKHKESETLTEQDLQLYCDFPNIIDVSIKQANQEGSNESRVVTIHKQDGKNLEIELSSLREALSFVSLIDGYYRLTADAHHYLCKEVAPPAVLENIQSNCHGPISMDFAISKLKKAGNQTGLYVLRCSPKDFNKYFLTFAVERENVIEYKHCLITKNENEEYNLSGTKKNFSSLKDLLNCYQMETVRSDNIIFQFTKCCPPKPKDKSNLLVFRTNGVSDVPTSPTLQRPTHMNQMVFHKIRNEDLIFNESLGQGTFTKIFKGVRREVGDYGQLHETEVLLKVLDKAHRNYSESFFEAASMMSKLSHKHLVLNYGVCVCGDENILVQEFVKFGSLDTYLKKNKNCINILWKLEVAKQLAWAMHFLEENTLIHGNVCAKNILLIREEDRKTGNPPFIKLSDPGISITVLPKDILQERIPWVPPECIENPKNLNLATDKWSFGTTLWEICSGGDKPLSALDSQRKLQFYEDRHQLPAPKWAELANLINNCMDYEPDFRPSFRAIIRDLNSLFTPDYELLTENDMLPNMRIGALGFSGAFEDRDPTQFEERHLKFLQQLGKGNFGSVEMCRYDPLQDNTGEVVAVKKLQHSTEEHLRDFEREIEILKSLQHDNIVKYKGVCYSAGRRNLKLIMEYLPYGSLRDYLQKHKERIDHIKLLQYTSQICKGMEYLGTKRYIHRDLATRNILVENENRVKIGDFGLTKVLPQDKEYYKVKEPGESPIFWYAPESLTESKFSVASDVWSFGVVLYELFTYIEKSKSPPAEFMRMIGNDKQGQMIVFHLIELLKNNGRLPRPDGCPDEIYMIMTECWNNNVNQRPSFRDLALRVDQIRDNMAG

[6] = 110 mg/kg orally once a day, vs vehicle
[7] = 110 mg/kg orally twice a day (so in the source)

CN1CCN(c2cccc(Nc3nc4c(-c5ccc(S(C)(=O)=O)cc5)cccn4n3)c2)CC1 [Compound A, [8-(4-methanesulfonyl-phenyl)-[1,2,4]triazolo[1,5-a]pyridin-2-yl]-[3-(4-methyl-piperazin-1-yl)-phenyl]-amine]
Duration (of disease) (MOG-induced EAE [1]; 30 mg/kg orally twice a day): 3.7 ± 6.1 days | GMS (group mean score) (MOG-induced EAE [1]; 30 mg/kg orally twice a day): 0.2±0.4 | MMS (mean maximal score) (MOG-induced EAE [1]; 30 mg/kg orally twice a day): 0.7±1.0 | Mortality (MOG-induced EAE [1]; 30 mg/kg orally twice a day, dead/total, to day 30): 0/15 | Percent Inhibition-1 (MOG-induced EAE [1]; 30 mg/kg orally twice a day): 53.3% | Onset (of disease) (MOG-induced EAE [1]; 30 mg/kg orally twice a day): 23.7 ± 8.2 days | Percent Inhibition-3 (MOG-induced EAE [1]; 30 mg/kg orally twice a day): 90.5% | Percent Inhibition-2 (MOG-induced EAE [1]; 30 mg/kg orally twice a day): 79.4% | Incidence (MOG-induced EAE [1]; 30 mg/kg orally twice a day, to day 30): 7/15 | reduction in clinical scores compared to vehicle (FIG. 1) (MOG-induced EAE [1]; 30 mg/kg orally twice daily): 90.5% | Duration (of disease) (MOG-induced EAE [1]; 55 mg/kg orally twice a day): 0.2 ± 0.8 days | GMS (group mean score) (MOG-induced EAE [1]; 55 mg/kg orally twice a day): 0.01±0.04 | MMS (mean maximal score) (MOG-induced EAE [1]; 55 mg/kg orally twice a day): 0.1±0.3 | Mortality (MOG-induced EAE [1]; 55 mg/kg orally twice a day, dead/total, to day 30): 0/15 | Percent Inhibition-1 (MOG-induced EAE [1]; 55 mg/kg orally twice a day): 93.3% | Onset (of disease) (MOG-induced EAE [1]; 55 mg/kg orally twice a day): 30.5 ± 2.1 days | Percent Inhibition-3 (MOG-induced EAE [1]; 55 mg/kg orally twice a day): 99.5% | Percent Inhibition-2 (MOG-induced EAE [1]; 55 mg/kg orally twice a day): 97.1% | Incidence (MOG-induced EAE [1]; 55 mg/kg orally twice a day, to day 30): 1/15 | reduction in clinical scores compared to vehicle (FIG. 1) (MOG-induced EAE [1]; 55 mg/kg orally twice daily): 99.5% | GMS reduction (MOG-induced EAE [1]; [6]): 98.5% | MMS reduction (MOG-induced EAE [1]; [6]): 97.1% | reduction in clinical score over that of vehicle (FIG. 1) (MOG-induced EAE [1]; 110 mg/kg orally once daily): 98.5% | Duration (of disease) (MOG-induced EAE [1]; [7]): 0.5 ± 2.1 days | GMS (group mean score) (MOG-induced EAE [1]; [7]): 0.03 ± 0.1 | MMS (mean maximal score) (MOG-induced EAE [1]; [7]): 0.1 ± 0.3 | Mortality (MOG-induced EAE [1]; 110 mg/kg orally twice a day (so in the source), dead/total, to day 30): 0/15 | Percent Inhibition-1 (MOG-induced EAE [1]; [7]): 93.3% | Onset (of disease) (MOG-induced EAE [1]; [7]): 30.5 ± 2.1 days | Percent Inhibition-3 (MOG-induced EAE [1]; [7]): 98.5% | Percent Inhibition-2 (MOG-induced EAE [1]; [7]): 97.1% | Incidence (MOG-induced EAE [1]; 110 mg/kg orally twice a day (so in the source), to day 30): 1/15 | Mortality (MOG-induced EAE [1]; any of the MOG-induced EAE treatment groups): not observed | impact on clinical score over vehicle (MOG-induced EAE [1]; once daily dosing at 10 mg/kg, 30 mg/kg and 60 mg/kg (data not shown)): no significant impact over vehicle | reduction of demyelination over vehicle (LFB/PAS) (MOG-induced EAE [2]): 17.3%-23.9% | reduction of spinal inflammation over vehicle (H&E) (MOG-induced EAE [2]): 41.6%-57.5% | Clinical score reduction compared to vehicle (FIG. 3) (SCH-induced EAE; 30 mg/kg orally twice a day): 37.3% | Duration (of disease) (SCH-induced EAE; 30 mg/kg orally twice a day): 8.2 ± 3.3 days | Onset (of disease) (SCH-induced EAE; 30 mg/kg orally twice a day): 16.2 ± 2.0 days | GMS reduction (SCH-induced EAE; 30 mg/kg orally twice a day): 37.3% | MMS reduction (SCH-induced EAE; 30 mg/kg orally twice a day): 17.5% | Clinical score reduction compared to vehicle (FIG. 3) (SCH-induced EAE; 60 mg/kg orally twice a day): 58.3% | Duration (of disease) (SCH-induced EAE; 60 mg/kg orally twice a day): 8.4 ± 4.2 days | Onset (of disease) (SCH-induced EAE; 60 mg/kg orally twice a day): 16.4 ± 3.0 days | GMS reduction (SCH-induced EAE; 60 mg/kg orally twice a day): 58.3% | MMS reduction (SCH-induced EAE; 60 mg/kg orally twice a day): 30% | Mortality (SCH-induced EAE; range over groups treated with Compound A, vehicle 40%): 20-80% | GMS (1st and 2nd relapse) (PLP-induced EAE [3]; 30 mg/kg orally twice a day): 1.3 ± 0.9 | Mortality (PLP-induced EAE [3]; 30 mg/kg orally twice a day): 0/15 | Incidence (PLP-induced EAE [3]; 30 mg/kg orally twice a day): 15/15 | reduction in overall mean clinical scores compared to vehicle (FIG. 4) (PLP-induced EAE [3]; 30 mg/kg twice daily): 25.9% | reduction in clinical score over that of vehicle (PLP-induced EAE [3]; 60 mg/kg once daily (data not shown)): 20.1% | GMS (1st and 2nd relapse) (PLP-induced EAE [3]; 60 mg/kg orally once a day): 1.4 ± 0.8 | Mortality (PLP-induced EAE [3]; 60 mg/kg orally once a day): 0/15 | Incidence (PLP-induced EAE [3]; 60 mg/kg orally once a day): 15/15 | GMS (1st and 2nd relapse) (PLP-induced EAE [3]; 60 mg/kg orally twice a day): 0.8 ± 0.4 | Mortality (PLP-induced EAE [3]; 60 mg/kg orally twice a day): 0/15 | Incidence (PLP-induced EAE [3]; 60 mg/kg orally twice a day): 15/15 | reduction in overall mean clinical scores compared to vehicle (FIG. 4) (PLP-induced EAE [3]; 60 mg/kg twice daily): 49.9% | reduction in clinical score over that of vehicle (PLP-induced EAE [3]; 100 mg/kg once daily (data not shown)): 54.9% | GMS (1st and 2nd relapse) (PLP-induced EAE [3]; 100 mg/kg orally once a day): 0.9 ± 0.5 | Mortality (PLP-induced EAE [3]; 100 mg/kg orally once a day): 0/15 | Incidence (PLP-induced EAE [3]; 100 mg/kg orally once a day): 15/15 | GMS (1st and 2nd relapse) (PLP-induced EAE [3]; 100 mg/kg orally twice a day): 0.3 ± 0.3 | Mortality (PLP-induced EAE [3]; 100 mg/kg orally twice a day): 0/15 | Incidence (PLP-induced EAE [3]; 100 mg/kg orally twice a day): 10/15 | activity in the first relapse (PLP-induced EAE [3]; 100 mg/kg twice a day): 97.6% | activity in the second relapse (PLP-induced EAE [3]; 100 mg/kg twice a day): 85.9% | reduction in overall mean clinical scores compared to vehicle (FIG. 4) (PLP-induced EAE [3]; 100 mg/kg twice daily): 86.1% | reduction of inflammation (H&E staining) (PLP-induced EAE [4]): significance in the reduction of inflammation | dose relation of Cmax and AUC (in vivo; 30 mg/kg): linear, dose-related increases | Cmax (in vivo; male, beagle, 100 mg/kg): 1760 ng/mL | exposures associated with efficacy [5]: 2000 to 4000 ng/mL | inhibition of JAK2 (JAK2): potent
